Experiments:
Format in all cases: functional
[1] = test system: Coptotermes formosanus; assay: Insecticidal activity against Coptotermes formosanus assessed as mortality at 0.00025 g/m'2 after 48 hr
[2] = test system: Coptotermes formosanus; assay: Insecticidal activity against Coptotermes formosanus assessed as mortality at 0.00025 g/m'2 after 24 hr
[3] = test system: Coptotermes formosanus; assay: Insecticidal activity against Coptotermes formosanus assessed as mortality at 0.00010 g/m'2 after 48 hr
[4] = test system: Coptotermes formosanus; assay: Insecticidal activity against Coptotermes formosanus assessed as mortality at 0.00005 g/m'2 after 24 hr
[5] = test system: Coptotermes formosanus; assay: Insecticidal activity against Coptotermes formosanus assessed as mortality at 0.00050 g/m'2 after 24 hr
[6] = test system: Coptotermes formosanus; assay: Insecticidal activity against Coptotermes formosanus assessed as mortality at 0.00010 g/m'2 after 24 hr
[7] = test system: Coptotermes formosanus; assay: Insecticidal activity against Coptotermes formosanus assessed as mortality at 0.00050 g/m'2 after 48 hr
[8] = test system: Coptotermes formosanus; assay: Insecticidal activity against Coptotermes formosanus assessed as mortality
[9] = test system: Coptotermes formosanus; assay: Insecticidal activity against Coptotermes formosanus assessed as mortality at 0.00005 g/m'2 after 48 hr
[10] = test system: Coptotermes formosanus; assay: Insecticidal activity against Coptotermes formosanus assessed as mortality at 0.00001 g/m'2 after 24 hr
[11] = test system: Tyrophagus putrescentiae; assay: Insecticidal activity against Tyrophagus putrescentiae assessed as mortality after 24 hr by clip method
[12] = test system: Dermatophagoides farinae; assay: Insecticidal activity against Dermatophagoides farinae assessed as mortality at 1 g/m'2 after 24 hr by clip method
[13] = test system: Dermatophagoides farinae; assay: Insecticidal activity against Dermatophagoides farinae assessed as mortality at 0.10 g/m'2 after 24 hr by clip method
[14] = test system: Tyrophagus putrescentiae; assay: Insecticidal activity against Tyrophagus putrescentiae assessed as mortality at 0.50 g/m'2 after 24 hr by clip method
[15] = test system: Tyrophagus putrescentiae; assay: Insecticidal activity against Tyrophagus putrescentiae assessed as mortality at 1 g/m'2 after 24 hr by clip method
[16] = test system: Tyrophagus putrescentiae; assay: Insecticidal activity against Tyrophagus putrescentiae assessed as mortality at 0.20 g/m'2 after 24 hr by clip method
[17] = test system: Dermatophagoides farinae; assay: Insecticidal activity against Dermatophagoides farinae assessed as mortality at 0.50 g/m'2 after 24 hr by clip method
[18] = test system: Tyrophagus putrescentiae; assay: Insecticidal activity against Tyrophagus putrescentiae assessed as mortality at 0.10 g/m'2 after 24 hr by clip method
[19] = test system: Dermatophagoides farinae; assay: Insecticidal activity against Dermatophagoides farinae assessed as mortality at 0.20 g/m'2 after 24 hr by clip method
[20] = test system: Dermatophagoides farinae; assay: Insecticidal activity against Dermatophagoides farinae assessed as mortality after 24 hr by clip method

`CCOP(=S)(OCC)Oc1nc(Cl)c(Cl)cc1Cl` [CHLORPYRIFOS] was tested, and the mortality [1] was 100%, the mortality [2] was 60% and the mortality [3] was 75%. The mortality [4] was 10%, the mortality [5] was 100% and the mortality [6] was 25%. It also gave a mortality [7] of 100%, an LC50 [8] of 0.00016 g/m2 and a mortality [9] of 40%. The mortality [10] was 0%.

In the case of `CCN(CC)C(=O)c1cccc(C)c1` [DIETHYLTOLUAMIDE], the LC50 [11] is reported as 1.46 g/m2, the mortality [12] is reported as 45.5% and the mortality [13] is reported as 0%. For the same compound, the mortality [14] was 18.9%, the mortality [15] was 67.1% and the mortality [16] was 4.5%. For the same compound, the mortality [17] was 20.5%, the mortality [18] was 0% and the mortality [19] was 7.2%. It also gave an LC50 [20] of 0.79 g/m2.
